The subject of test [1] is Acinetobacter baumannii. Description: Antimicrobial activity against Acinetobacter baumannii ATCC 17978 assessed as mutation frequency at 4 times MIC measured after 48 hrs. The test is classed as functional.
The target of test [2] is T1, Protein RecA (Escherichia coli K-12) (UniProt P0A7G6).
T1 sequence (whole entry): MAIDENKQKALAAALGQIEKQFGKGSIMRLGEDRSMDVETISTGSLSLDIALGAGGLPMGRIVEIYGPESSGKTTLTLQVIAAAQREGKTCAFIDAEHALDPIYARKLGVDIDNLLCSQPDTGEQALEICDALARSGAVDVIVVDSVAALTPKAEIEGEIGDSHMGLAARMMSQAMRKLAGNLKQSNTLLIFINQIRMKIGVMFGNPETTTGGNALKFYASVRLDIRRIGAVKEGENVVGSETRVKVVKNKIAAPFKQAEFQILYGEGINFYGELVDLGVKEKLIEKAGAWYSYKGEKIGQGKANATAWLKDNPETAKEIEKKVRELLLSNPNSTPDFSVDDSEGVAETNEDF
The test can be described thus: Induction of Escherichia coli K12 MG1655 recA promotor measured at 30 mins interval for 20 hrs by fluorescence assay relative to control. The conditions noted are these: Escherichia coli str. K-12 substr. MG1655.

Test [3] relates to Klebsiella pneumoniae. Description: Antimicrobial activity against Klebsiella pneumoniae M6 assessed as mutation frequency at 4 times MIC measured after 48 hrs. The test is classed as functional.
In test [4] the test system is Escherichia coli. Description: Antimicrobial activity against multidrug-resistant Escherichia coli NCTC 12923 assessed as mutation frequency at 4 times MIC measured after 48 hrs. Format: functional.
Test [5] has as its target T2, LexA repressor (Escherichia coli) (UniProt P0A7C2).
T2 sequence (whole entry): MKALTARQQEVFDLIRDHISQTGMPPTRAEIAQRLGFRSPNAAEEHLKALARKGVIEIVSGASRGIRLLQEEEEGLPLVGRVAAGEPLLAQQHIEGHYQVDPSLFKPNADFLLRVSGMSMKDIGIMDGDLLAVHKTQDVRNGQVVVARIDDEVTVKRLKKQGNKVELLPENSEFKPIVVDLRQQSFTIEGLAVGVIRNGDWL
The test can be described thus: Induction of Escherichia coli K12 MG1655 lexA promotor measured at 30 mins interval for 20 hrs by fluorescence assay relative to control. Particulars: Escherichia coli str. K-12 substr. MG1655.

In test [6] the target is T3, Cell division inhibitor SulA (Escherichia coli K-12) (UniProt P0AFZ5).
T3 sequence (whole entry): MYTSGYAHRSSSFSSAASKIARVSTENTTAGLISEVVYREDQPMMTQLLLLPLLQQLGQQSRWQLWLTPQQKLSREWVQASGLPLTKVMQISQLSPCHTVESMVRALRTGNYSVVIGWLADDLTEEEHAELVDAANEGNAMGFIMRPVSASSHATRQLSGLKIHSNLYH
The test can be described thus: Induction of Escherichia coli K12 MG1655 sulA promotor measured at 30 mins interval for 20 hrs by fluorescence assay relative to control. Particulars: Escherichia coli str. K-12 substr. MG1655.

Test [7] addresses T4, DNA repair protein RecN (Escherichia coli) (UniProt P05824).
T4 sequence (whole entry): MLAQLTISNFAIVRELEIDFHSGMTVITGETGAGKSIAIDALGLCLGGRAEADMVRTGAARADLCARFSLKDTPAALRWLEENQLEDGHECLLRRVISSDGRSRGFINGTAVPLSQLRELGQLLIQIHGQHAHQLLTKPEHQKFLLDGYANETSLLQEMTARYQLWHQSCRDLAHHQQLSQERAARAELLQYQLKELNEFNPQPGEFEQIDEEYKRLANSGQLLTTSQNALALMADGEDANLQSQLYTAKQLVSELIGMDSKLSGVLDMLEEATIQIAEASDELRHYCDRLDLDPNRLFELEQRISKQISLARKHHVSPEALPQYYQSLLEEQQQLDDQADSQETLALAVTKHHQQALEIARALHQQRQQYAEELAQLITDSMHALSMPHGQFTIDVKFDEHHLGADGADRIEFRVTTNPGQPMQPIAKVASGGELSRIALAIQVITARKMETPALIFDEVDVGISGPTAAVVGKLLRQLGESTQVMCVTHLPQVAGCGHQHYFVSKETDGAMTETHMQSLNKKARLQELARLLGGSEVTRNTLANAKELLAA
The test can be described thus: Induction of Escherichia coli K12 MG1655 recN promotor measured at 30 mins interval for 20 hrs by fluorescence assay relative to control. Particulars: Escherichia coli str. K-12 substr. MG1655.

Each structure is given as a SMILES string.

As for `O=C(O)c1cn(C2CC2)c2cc(N3CCNCC3)c(F)cc2c1=O` [CIPROFLOXACIN], the Activity in test [1] was found to be 8.4 ×10⁻⁷ No_unit; in test [3], 8.9 ×10⁻⁷ No_unit; in test [4], 4.4 ×10⁻⁷ No_unit. The fold change (FC) lay within 20 to 35 in test [2], 5 to 13 in test [5], 17 to 41 in test [6] and 14 to 32 in test [7].

Source of the values: ChEMBL document CHEMBL4610120, “New Broad-Spectrum Antibiotics Containing a Pyrrolobenzodiazepine Ring with Activity against Multidrug-Resistant Gram-Negative Bacteria” (J Med Chem, 2020).
